Laboratory results: patent publication US9309276B2, “Synthetic lipid A derivative” (University of Georgia Research Foundation, Inc., priority 2007, dated 2016)

System: RAW 264.7 γNO(−) cells
Assay: Cytokine induction and ELISAs in mouse macrophages (RAW 264.7 γNO(−) cells)
Type: cell-based
Details: for secretion of cytokines (TNF-α, IL-6, IP-10, IFN-β and IL-1β): Example III, data not shown; for Cytokine top value of dose-response curve, pro Il-1β: cell lysates; for Cytokine top value of dose-response curve, pro Il-1β / TNF-α and IFN-β production, dose response (in words) / Cytokine top value of dose-response curve, IFN-β / Cytokine top value of dose-response curve, IL-6 / Cytokine top value of dose-response curve, IP-10 / Cytokine top value of dose-response curve, RANTES / Cytokine top value of dose-response curve, TNF-α: 5.5 h; for Cytokine top value of dose-response curve, pro Il-1β / Cytokine top value of dose-response curve, IFN-β / Cytokine top value of dose-response curve, IL-6 / Cytokine top value of dose-response curve, IP-10 / Cytokine top value of dose-response curve, RANTES / Cytokine top value of dose-response curve, TNF-α: best-fit value ± std. error; for TNF-α and IFN-β production, dose response (in words) / Cytokine top value of dose-response curve, IFN-β / Cytokine top value of dose-response curve, IL-6 / Cytokine top value of dose-response curve, IP-10 / Cytokine top value of dose-response curve, RANTES / Cytokine top value of dose-response curve, TNF-α / Cytokine top value of dose-response curve, IL-1β: supernatant; for TNF-α and IFN-β production, dose response (in words): wide range of concentrations; for Cytokine top value of dose-response curve, IL-1β: 24 h, best-fit value ± std. error (# plateau not reached for LPS)
Procedure: Mouse macrophages (RAW 264.7 γNO(−) cells) were exposed over a wide range of concentrations to compounds 1-5 and E. coli 055:B5 LPS. After 5.5 hours, the supernatants were harvested and examined for mouse TNF-α and IFN-β using a commercial and in-house developed capture ELISA assay, respectively. Potencies (EC50, concentration producing 50% activity) and efficacies (maximal level of production) were determined by fitting the dose-response curves to a logistic equation using PRISM software. […] It has also been shown that removal of the KDO moieties by mild acidic treatment reduces cellular responses (Demchenko et al., J. Am. Chem. Soc. 2003, 125, 6103-6112).
Having established the EC50 values of TNF-α and IFN-β secretion by compounds 1-5 and E. coli 055:B5 LPS, attention was focused on IL-6, IP-10, RANTES, and IL-1β responses. Thus, the previously harvested supernatants were analyzed for these cytokines using capture ELISA assays (FIG. 4, Table 1). For IL-6, IP-10, and RANTES, a short incubation time of 5.5 hrs was sufficient for detection. To achieve significant IL-1β secretion, the incubation had to be extended to 24 hrs. […] IL-1β is expressed as a pro-protein (pro-IL-1β), which is cleaved by caspase-1 into its active form (IL-1β), which is then secreted. Indeed, analyzing IL-1β of the cell lysates by Western blotting confirmed that it was present as a pro-protein (data not shown). TNF-α is also produced as a pro-protein, which is proteolitically cleaved by tumor necrosis factor-α converting enzyme (TACE) (Skotnicki and Levin, Annu. Rep. Med. Chem. 2003, 38, 153-162; Duffy et al., Thromb. Haemost. 2003, 89, 622-631). […] Furthermore, for each of the synthetic compounds and LPS, EC50 values of secreted TNF-α and intracellular pro-IL-1β were very similar. However, EC50 values for secreted mature IL-1β were larger by as much as 100-fold.
RAW 264.7 γNO(−) cells were plated on the day of the exposure assay as 2×10^5 cells/well in 96-well tissue culture plates (Nunc). Cells were incubated with different stimuli for 5.5 and 24 hours in replicates of five. Culture supernatants were then collected, pooled, and stored frozen (−80° C.) until assayed for cytokine production. After removal of the supernatant, cells were lysed by adding PBS containing Tween 20 (0.01%) and BSA (1%) in the same volume as that of the supernatant and sonicating for 5 min. The cell lysates were pooled and stored frozen (−80° C.) until assayed for cytokine production.
All cytokine ELISAs were performed in 96-well MaxiSorp plates (Nunc). Cytokine DuoSet ELISA Development Kits (R&D Systems) were used for the cytokine quantification of mouse TNF-α, IL-6, IP-10, RANTES, and IL-1β according to the manufacturer's instructions. The absorbance was measured at 450 nm with wavelength correction set to 540 nm using a microplate reader (BMG Labtech). Concentrations of IFN-β in culture supernatants were determined as follows. ELISA MaxiSorp plates were coated with rabbit polyclonal antibody against mouse IFN-β (PBL Biomedical Laboratories). IFN-β in standards and samples was allowed to bind to the immobilized antibody. Rat anti-mouse IFN-β antibody (USBiological) was then added, producing an antibody-antigen-antibody “sandwich”. Next, horseradish peroxidase (HRP) conjugated goat anti-rat IgG (H+L) antibody (Pierce) and a chromogenic substrate for HRP 3,3′,5,5′-tetramethylbenzidine (TMB; Pierce) were added. After the reaction was stopped, the absorbance was measured at 450 nm with wavelength correction set to 540 nm. All cytokine values are presented as the means±SD of triplicate measurements, with each experiment being repeated three times.
Concentration-response data were analyzed using nonlinear least-squares curve fitting in Prism (GraphPad Software, Inc.). […] The Hillslope was set at 1 to be able to compare the EC50 values of the different inducers. […]

SMILES	secretion of cytokines (TNF-α, IL-6, IP-10, IFN-β and IL-1β)	Cytokine top value of dose-response curve, pro Il-1β [pg/mL]	TNF-α and IFN-β production, dose response (in words)	Cytokine top value of dose-response curve, IFN-β [pg/mL]	Cytokine top value of dose-response curve, IL-6 [pg/mL]	Cytokine top value of dose-response curve, IP-10 [pg/mL]	Cytokine top value of dose-response curve, RANTES [pg/mL]	Cytokine top value of dose-response curve, TNF-α [pg/mL]	Cytokine top value of dose-response curve, IL-1β [pg/mL]
CCCCCCCCCCCCCCCC(=O)O[C@H](CCCCCCCCCCCC(C)C)CC(=O)N[C@H]1[C@H](OC[C@H]2O[C@H](OP(=O)(O)O)[C@H](NC(=O)C[C@H](O)CCCCCCCCCCCC(C)C)[C@@H](OC(=O)C[C@H](O)CCCCCCCCCCCCC)[C@@H]2O)O[C@H](CO)[C@@H](O)[C@@H]1O [Compound 103, 6-O-{2-Deoxy-2-[(R)-3-hexadecanoyloxy-15-methyl-hexadecanoylamino]-β-D-glucopyranosyl}-3-O—[(R)-3-hydroxy-hexadecanoyl]-2-deoxy-2-[(R)-3-hydroxy-15-methyl-hexadecanoylamino]-α-D-glucopyranose 1-phosphate]	did not lead to secretion of cytokines	–	–	–	–	–	–	–	–
CCCCCCCCCCCCCCCC(=O)O[C@H](CCCCCCCCCCCC(C)C)CC(=O)N[C@H]1[C@H](OC[C@H]2O[C@H](OP(=O)(O)O)[C@H](NC(=O)C[C@H](O)CCCCCCCCCCCC(C)C)[C@@H](O)[C@@H]2O)O[C@H](CO)[C@@H](O)[C@@H]1ONC(=O)C[C@H](O)CCCCCCCCCC(C)C [Compound 104, 6-O-{2-Deoxy-2-[(R)-3-hexadecanoyloxy-15-methyl-hexadecanoylamino]-3-O—[(R)-3-hydroxy-13-methyl-tetradecanoylamino]-β-D-glucopyranosyl}-2-deoxy-2-[(R)-3-hydroxy-15-methyl-hexadecanoylamino]-α-D-glucopyranose 1-phosphate]	did not lead to secretion of cytokines	–	–	–	–	–	–	–	–
CCCCCCCCCCCCCC(=O)OC(CCCCCCCCCCC)CC(=O)OC1C(NC(=O)CC(CCCCCCCCCCC)OC(=O)CCCCCCCCCCC)C(OCC2OC(OP(=O)(O)O)C(NC(=O)CC(O)CCCCCCCCCCC)C(OC(=O)CC(O)CCCCCCCCCCC)C2O)OC(CO)C1OP(=O)(O)O [Lipid A 1, 6-O-{2-Deoxy-2-[(R)-3-dodecanoyloxy-tetradecanoylamino]-3-O—[(R)-3-tetradecanoyloxy-tetradecanoyl]-β-D-glucopyranosyl}-2-deoxy-3-O—[(R)-3-hydroxy-tetradecanoyl]-2-[(R)-3-hydroxy-tetradecanoylamino]-α-D-glucopyranose 1,4′-bisphosphate]	–	565 ± 25	clear dose response curves	724 ± 25	249 ± 29	6778 ± 214	5531 ± 214	3924 ± 179	92 ± 2
CCCCCCCCCCCC(=O)OC(CCCCCCCCCCC)CC(=O)NC1C(OCC2OC(OP(=O)(O)O)C(NC(=O)CC(O)CCCCCCCCCCC)C(OC(=O)CC(O)CCCCCCCCC)C2O)OC(CO)C(OP(=O)(O)O)C1OC(=O)CC(CCCCCCCCC)OC(=O)CCCCCCCCCCC [Lipid A 2, 6-O-{2-Deoxy-3-O—[(R)-3-dodecanoyloxy-dodecanoyl]-2-[(R)-3-dodecanoyloxy-tetradecanoylamino]-β-D-glucopyranosyl}-2-deoxy-3-O—[(R)-3-hydroxy-dodecanoyl]-2-[(R)-3-hydroxy-tetredecanoylamino]-α-D-glucopyranose 1,4′-bisphosphate]	–	587 ± 87	clear dose response curves	654 ± 37	299 ± 42	7207 ± 277	6851 ± 216	4223 ± 329	82 ± 2
CCCCCCCCCCCCCCCC(=O)OC(CCCCCCCCCCC)CC(=O)NC1C(OP(=O)(O)O)OC(COC2OC(CO)C(OP(=O)(O)O)C(OC(=O)CC(CCCCCCCCC)OC(=O)CCCCCCCCCCC)C2NC(=O)CC(CCCCCCCCCCC)OC(=O)CCCCCCCCCCC)C(O)C1OC(=O)CC(O)CCCCCCCCC [Lipid A 4, 6-O-{2-Deoxy-3-O—[(R)-3-dodecanoyloxy-dodecanoyl]-2-[(R)-3-dodecanoyloxy-tetradecanoylamino]-β-D-glucopyranosyl}-2-deoxy-2-[(R)-3-hexadecanoyloxy-tetredecanoylamino]-3-O—[(R)-3-hydroxy-dodecanoyl]-α-D-glucopyranose 1,4′-bisphosphate]	–	610 ± 35	clear dose response curves	710 ± 44	233 ± 12	7320 ± 415	5360 ± 263	4178 ± 250	86 ± 4
